Species: Rattus norvegicus
Assay: Open TG-GATES - Regimen: Daily Repeat
Assay type: toxicity, organism-based, Sprague-Dawley
Design: regimen Daily Repeat, gender Male, age 6 weeks
Conditions: in vivo, po, 200 mg/kg, […], route gavage, dose level High; for KIDNEY_L / KIDNEY_R / KIDNEY_TOTAL: tissue Kidney; for LIVER: tissue Liver; for A/G / ALP / ALT / AST / BUN / CRE / Ca / Cl / DBIL / GLC / IP / K / LDH / Na / PL / RALB / TBIL / TC / TG / TP / gamma-GTP: tissue Plasma

What does the source list for Cn1c(=O)c2[nH]cnc2n(C)c1=O.O [THEOPHYLLINE]?
Lym (tissue Blood, time 28 day): 76.5%; MCH (tissue Blood, time 28 day): 19.9 pg; MCHC (tissue Blood, time 28 day): 34.5%; MCV (tissue Blood, time 28 day): 57.7 fL; Mono (tissue Blood, time 28 day): 2.5%; Neu (tissue Blood, time 28 day): 19%; PT (tissue Blood, time 28 day): 16.6 s; Plat (tissue Blood, time 28 day): 91.7 x10_4/uL; RBC (tissue Blood, time 28 day): 810 x10_4/ul; Ret (tissue Blood, time 28 day): 3.6%; WBC (tissue Blood, time 28 day): 133.1 x10_2/uL; KIDNEY_L (time 7 day): 1.1 g; KIDNEY_R (time 7 day): 1.1 g; KIDNEY_TOTAL (time 7 day): 2.1 g; KIDNEY_L (time 14 day): 1.2 g; KIDNEY_R (time 14 day): 1.3 g; KIDNEY_TOTAL (time 14 day): 2.5 g; KIDNEY_L (time 28 day): 1.4 g; KIDNEY_R (time 28 day): 1.4 g; KIDNEY_TOTAL (time 28 day): 2.8 g; LIVER (time 7 day): 11.2 g; LIVER (time 14 day): 11.7 g; LIVER (time 28 day): 15.5 g; A/G (time 7 day): 1.2; ALP (time 7 day): 1736.2 IU/L; ALT (time 7 day): 58.6 IU/L; AST (time 7 day): 79 IU/L; BUN (time 7 day): 16.6 mg/dL; CRE (time 7 day): 0.2 mg/dL; Ca (time 7 day): 10.8 mg/dL; Cl (time 7 day): 104.2 meq/L; DBIL (time 7 day): 0 mg/dL; GLC (time 7 day): 173 mg/dL; IP (time 7 day): 8.2 mg/dL; K (time 7 day): 4.4 meq/L; LDH (time 7 day): 182.6 IU/L; Na (time 7 day): 142 meq/L; PL (time 7 day): 134.6 mg/dL; RALB (time 7 day): 3.3 g/dL; TBIL (time 7 day): 0.01 mg/dL; TC (time 7 day): 74 mg/dL; TG (time 7 day): 65.6 mg/dL; TP (time 7 day): 5.9 g/dL; gamma-GTP (time 7 day): 2.2 IU/L; A/G (time 14 day): 1.2; ALP (time 14 day): 1300.2 IU/L; ALT (time 14 day): 54 IU/L; AST (time 14 day): 85 IU/L; BUN (time 14 day): 13.8 mg/dL; CRE (time 14 day): 0.2 mg/dL; Ca (time 14 day): 10.4 mg/dL; Cl (time 14 day): 104.8 meq/L; DBIL (time 14 day): 0 mg/dL; GLC (time 14 day): 175.5 mg/dL; IP (time 14 day): 8.7 mg/dL; K (time 14 day): 4.2 meq/L; LDH (time 14 day): 137.2 IU/L; Na (time 14 day): 141.8 meq/L; PL (time 14 day): 128.8 mg/dL; RALB (time 14 day): 3.2 g/dL; TBIL (time 14 day): 0.02 mg/dL; TC (time 14 day): 70.5 mg/dL; TG (time 14 day): 64.2 mg/dL; TP (time 14 day): 5.8 g/dL; gamma-GTP (time 14 day): 2.2 IU/L; A/G (time 28 day): 1.1; ALP (time 28 day): 1103 IU/L; ALT (time 28 day): 54 IU/L; AST (time 28 day): 92.5 IU/L; BUN (time 28 day): 16.5 mg/dL; CRE (time 28 day): 0.2 mg/dL; Ca (time 28 day): 10.8 mg/dL; Cl (time 28 day): 105 meq/L; DBIL (time 28 day): 0 mg/dL; GLC (time 28 day): 186.5 mg/dL; IP (time 28 day): 7.5 mg/dL; K (time 28 day): 4.1 meq/L; LDH (time 28 day): 140.5 IU/L; Na (time 28 day): 143 meq/L; PL (time 28 day): 133.5 mg/dL; RALB (time 28 day): 3.3 g/dL; TBIL (time 28 day): 0.025 mg/dL; TC (time 28 day): 66 mg/dL; TG (time 28 day): 90 mg/dL; TP (time 28 day): 6.5 g/dL; gamma-GTP (time 28 day): 2.5 IU/L

Source: ChEMBL document CHEMBL3885861, “Open TG-GATES”
